Assay results from US20150025034A1, “COMPOSITION FOR CARE AND HYGIENE OF THE AUDITORY CANAL” (LABORATOIRES GILBERT, priority 2012, published 2015).

Assay: In vitro assessment of the cerumenolytic effect on plugs of human cerumen
Details: 1 ml per 30 mg plug, 1 hour incubation, 37° C.
Method: The activity was assessed through the loss of weight of the plugs of cerumen caused by the dissolution of part of this plug, or more precisely the loss was calculated between the initial dry weight and the remaining dry weight after action of the product in the test.
Reference product: an aerosol spray based on pure sea water (nitrogen propellant), hereinafter referred to as T1, an aerosol spray containing sodium bicarbonate and polysorbate as active principles, hereinafter referred to as T2, and ultrapure water (type 1, Milli-Q water) are used as references. T1 and T2 are commercially available compositions used by way of compositions for the care and hygiene of the auditory channel and judged effective.
12 plugs of human cerumen, to a total weight of 1.55 grams, came from patients from the Ear, Nose and Throat Department of the Saint-Grégoire Hospital (35760). The plugs were mixed in order to obtain a homogeneous plug. […]
The effect sought is the dissolution of the plug. This dissolution is assessed by the loss of weight of the plug between the initial dry weight and the dry weight after incubation. […]
1 ml of composition CE1 and the reference compositions were added separately in previously weighed tubes and put in an oven at 90° C. for 48 hours in order to determine the quantity of dry residues of each composition. […]

For O [pure water, water], the “Dissolution of human cerumen (loss of dry weight of the plug)” value was 51.5%.
